The source made the active and inactive calls. The rule behind the calls is not given here.
Legend:
[1] = Inhibition of classical complement pathway activation at 6.6 uM assessed as complement modulation test
[2] = Inhibition of classical complement pathway activation by complement modulation test
[3] = Inhibition of alternative complement pathway activation by complement modulation test
[4] = Inhibition of classical complement pathway activation at 4 uM in presence of beta glucosidase by complement modulation test
[5] = Inhibition of classical complement pathway activation at 4 uM assessed as complement modulation test

Row | SMILES | inhibition [1] | IC50 [2] | Activity [3] | inhibition [4] | inhibition [5]
1 | COC(=O)C1=CO[C@@H](O)[C@@H]2C(CO)=CC[C@H]12 | 75.3% | – | – | – | –
2 | COC(=O)C1=CO[C@H](O[C@@H]2O[C@H](CO)[C@@H](O)[C@H](O)[C@H]2O)[C@H]2[C@@H]1C=C[C@@]21C=C(C(O)c2ccc(O)c(OC)c2)C(=O)O1 (stereo partly specified) [METHOXYGAERTNEROSIDE] | – | > 1000 µM | inactive | – | –
3 | COC(=O)C1=CO[C@H](O[C@@H]2O[C@H](CO)[C@@H](O)[C@H](O)[C@H]2O)[C@H]2[C@@H]1[C@@H]1O[C@@H]1[C@@]21C=C(C(O)c2ccc(O)cc2)C(=O)O1 (stereo partly specified) [EPOXYGAERTNEROSIDE] | – | > 1000 µM | inactive | – | –
4 | O=C(O)C1=CO[C@@H](O[C@@H]2O[C@H](CO)[C@@H](O)[C@H](O)[C@H]2O)[C@@H]2C(CO)=CC[C@H]12 | – | – | – | 87.3% | 14.3%
5 | OCC1=C[C@@H](O)[C@@H]2C=CO[C@@H](O[C@@H]3O[C@H](CO)[C@@H](O)[C@H](O)[C@H]3O)[C@H]12 | – | – | – | 89.3% | 21.7%
6 | COC(=O)C1=CO[C@H](O[C@@H]2O[C@H](CO)[C@@H](O)[C@H](O)[C@H]2O)[C@H]2[C@@H]1C=C[C@@]21C=C(C(O)c2ccc(O)cc2)C(=O)O1 (stereo partly specified) [GAERTNEROSIDE] | – | 58 µM | inactive | – | –
7 | COC(=O)C1=CO[C@@H](O[C@@H]2O[C@H](CO)[C@@H](O)[C@H](O)[C@H]2O)[C@@H]2C(CO)=CC[C@H]12 | – | – | – | – | 23%
8 | COC(=O)C1=CO[C@H](O[C@@H]2O[C@H](COC(C)=O)[C@@H](O)[C@H](O)[C@H]2O)[C@H]2[C@@H]1C=C[C@@]21C=C(C(O)c2ccc(O)cc2)C(=O)O1 (stereo partly specified) [ACETYLGAERTNEROSIDE] | – | 71 µM | inactive | – | –
9 | COC(=O)C1=CO[C@@H](O[C@@H]2O[C@H](CO)[C@@H](O)[C@H](O)[C@H]2O)[C@H]2[C@@H]1C=C[C@@]21C=C(C(=O)c2ccc(O)c(OC)c2)C(=O)O1 [DEHYDROMETHOXYGAERTNEROSIDE] | – | > 400 µM | inactive | – | –
10 | O=C(O)C1=CO[C@H](O[C@@H]2O[C@H](CO)[C@@H](O)[C@H](O)[C@H]2O)[C@H]2[C@@H]1C=C[C@@]21C=C(C(O)c2ccc(O)cc2)C(=O)O1 (stereo partly specified) [GAERTNERIC ACID] | – | 69 µM | inactive | – | –
11 | COC(=O)C1=CO[C@H](O[C@@H]2O[C@H](CO)[C@@H](O)[C@H](O)[C@H]2O)[C@H]2[C@@H]1[C@@H]1O[C@@H]1[C@@]21C=C(C(O)c2ccc(O)c(OC)c2)C(=O)O1 (stereo partly specified) | – | – | inactive | – | –
12 | COC(=O)C1=CO[C@H](O[C@@H]2O[C@H](CO)[C@@H](O)[C@H](O)[C@H]2O)[C@H]2[C@@H]1C=C[C@@]21C=C(C(=O)c2ccc(O)cc2)C(=O)O1 [DEHYDROGAERTNEROSIDE] | – | > 400 µM | inactive | – | –
